One assay deals with T1, Human recombinant FAP (Homo sapiens, UniProt Q12884).
T1 sequence (Q12884 1-760): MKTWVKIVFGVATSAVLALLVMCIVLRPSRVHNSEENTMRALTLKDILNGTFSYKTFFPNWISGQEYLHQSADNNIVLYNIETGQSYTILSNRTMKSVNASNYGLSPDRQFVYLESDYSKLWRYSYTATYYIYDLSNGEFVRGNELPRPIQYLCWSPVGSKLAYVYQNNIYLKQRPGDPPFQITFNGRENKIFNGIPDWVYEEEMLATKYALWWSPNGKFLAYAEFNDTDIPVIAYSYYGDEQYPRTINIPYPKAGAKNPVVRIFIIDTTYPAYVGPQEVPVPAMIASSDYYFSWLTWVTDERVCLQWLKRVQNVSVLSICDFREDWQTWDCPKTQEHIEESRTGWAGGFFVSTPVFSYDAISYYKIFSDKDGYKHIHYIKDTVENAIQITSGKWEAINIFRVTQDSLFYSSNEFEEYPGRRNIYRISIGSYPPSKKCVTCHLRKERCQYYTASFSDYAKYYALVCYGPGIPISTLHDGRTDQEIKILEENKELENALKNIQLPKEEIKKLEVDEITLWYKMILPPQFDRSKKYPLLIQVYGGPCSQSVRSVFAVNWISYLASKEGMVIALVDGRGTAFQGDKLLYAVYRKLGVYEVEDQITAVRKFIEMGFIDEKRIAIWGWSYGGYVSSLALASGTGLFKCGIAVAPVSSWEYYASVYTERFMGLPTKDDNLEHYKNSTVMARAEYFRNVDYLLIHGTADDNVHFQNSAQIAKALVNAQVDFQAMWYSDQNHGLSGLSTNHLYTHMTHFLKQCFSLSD
The experiment in a line: FRET-based FAP protease activity assay. The class given is biochemical. The arrangement: purchased R&D systems 3715-SE. The following applies: pIC50 Category (Activity), FRET substrate, 37° C.

In assay [1] the target is T2, FAP-expressing human WI-38 fibroblasts (Homo sapiens, UniProt Q12884).
T2 construct: FAP-expressing human WI-38 fibroblasts (ECACC) were cultured in EMEM; host or cells: WI-38 human fibroblasts
T2 sequence (Q12884 1-760): T1 sequence (Q12884 1-760)
Briefly: Competitive FACS binding assay. Conditions: pIC50 Category (FACS), competition with 3 nM Cy5-labeled compound, 4° C., 1 hour. The protocol:
Cells were analyzed in an Attune NxT flow cytometer. […]

Numbered stars: 1 amine (or outer) side, 2 acyl side, 3 side chain; on linkers, the order of the positions; unused ones are H or OH. Bridge positions count the residues as written; N and C are the ends. Square brackets hold non-standard residues; d marks the D form. Peptide text beside a SMILES is read from it. * marks the point of attachment. X35 = O=C(O)CN(CCN(CCN(CC(=O)O)CC(=O)O)CC(=O)NCCCOCCOCCOCCCN*)CC(=O)O; X42 = NCCNCC(CNCCN)C(=O)N[C@@H](CCC(=O)NCCCOCCOCCOCCCN*)C(=O)O; X12 = NCCNCC(CNCCN)C(=O)NCCCOCCOCCOCCCN*; X40 = NCCNCC(CNCCN)C(=O)NCCS(=O)(=O)CCN*; γGlu = O=C(O)[C@H](CCC(=O)[*:2])N[*:1]; mXylylene = c1cc(C[*:1])cc(C[*:2])c1; X51 = O=C(CN1CCC(N[*:1])CC1)[*:2]; 4Pal = N[C@@H](Cc1ccncc1)C(=O)O; Suc = O=C(CCC(=O)[*:2])[*:1]; X18 = NCCNCC(CNCCN)C(=O)*; Nle = CCCC[C@H](N)C(=O)O; AEEA = NCCOCCOCC(=O)O Bounds are passed on as bounds.

One may read the IC50 as the concentration needed to halve the response being measured.

Consider `CCCC[C@H](NC(=O)CN1CCC(NC(=O)C(CNCCN)CNCCN)CC1)C(=O)N[C@H]1CSCc2cccc(c2)CSC[C@@H](C(=O)O)NC(=O)[C@H](Cc2ccccc2)NC(=O)[C@H](CCC(=O)O)NC(=O)[C@H]([C@@H](C)O)NC(=O)[C@@H]2CCCN2C(=O)[C@@H]2CCCN2C1=O` [3BP-4220, N4Ac-APAc-Nle-[Cys-(3MeBn)-Pro-Pro-Thr-Glu-Phe-Cys]-OH] (X18-[X51][Nle]CPPTEFC-OH; linker 3-9 via mXylylene), for which the half-maximal inhibitory concentration (IC50) (on Human recombinant FAP; in assay [1]) was greater than 1000 nM in each case.

Consider `CCCC[C@H](NC(=O)CCC(=O)NCCCOCCOCCOCCCNC(=O)C(CNCCN)CNCCN)C(=O)N[C@H]1CSCc2cccc(c2)CSC[C@@H](C(=O)O)NC(=O)[C@H](Cc2ccncc2)NC(=O)[C@H](CCC(=O)O)NC(=O)[C@H]([C@@H](C)O)NC(=O)[C@@H]2CCCN2C(=O)[C@@H]2CCCN2C1=O` [3BP-4223, N4Ac-Ttds-Nle-[Cys-(3MeBn)-Pro-Pro-Thr-Glu-Ppa-Cys]-OH] ({X12-Suc}-[Nle]CPPTE[4Pal]C-OH; linker 2-8 via mXylylene), for which the IC50 (at Human recombinant FAP; in assay [1]) was 100 to 794 nM throughout.

On to `CCCCCC(=O)N[C@H]1CSCc2cc(CSCCNC(=O)COCCOCCNC(=O)CN(CCN(CC(=O)O)CC(=O)O)CCN(CC(=O)O)CC(=O)O)cc(c2)CSC[C@@H](C(=O)O)NC(=O)[C@H](Cc2ccccc2)NC(=O)[C@H](CCC(N)=O)NC(=O)[C@H]([C@@H](C)O)NC(=O)[C@@H]2CCCN2C(=O)[C@@H]2CCCN2C1=O` [3BP-4224, Hex-[Cys-(tMeBn(DTPA-O2Oc-AET))-Pro-Pro-Thr-Gln-Phe-Cys]-OH], for which the IC50 (at Human recombinant FAP; in assay [1]) was 10 to 79.4 nM throughout.

Take `CCCC[C@H](NC(=O)COCCOCCNC(=O)C(CNCCN)CNCCN)C(=O)N[C@H]1CSCc2cccc(c2)CSC[C@@H](C(=O)O)NC(=O)[C@H](Cc2ccccc2)NC(=O)[C@H](CCC(=O)O)NC(=O)[C@H]([C@@H](C)O)NC(=O)[C@@H]2CCCN2C(=O)[C@@H]2CCCN2C1=O` [3BP-4228, N4Ac-O2O-Nle-[Cys-(3MeBn)-Pro-Pro-Thr-Glu-Phe-Cys]-OH] ({X18-AEEA}-[Nle]CPPTEFC-OH; linker 2-8 via mXylylene): the IC50 is 100 to 794 nM on Human recombinant FAP and greater than 1000 nM in assay [1].

Regarding `CCCC[C@H](NC(=O)CCC(=O)NCCCOCCOCCOCCCNC(=O)CN(CCN(CC(=O)O)CC(=O)O)CCN(CC(=O)O)CC(=O)O)C(=O)N[C@H]1CSCc2cccc(c2)CSC[C@@H](C(=O)O)NC(=O)[C@H](Cc2ccccc2)NC(=O)[C@H](CCC(=O)O)NC(=O)[C@H]([C@@H](C)O)NC(=O)[C@@H]2CCCN2C(=O)[C@@H]2CCCN2C1=O` [3BP-4229, DTPA-Ttds-Nle-[Cys-(3MeBn)-Pro-Pro-Thr-Glu-Phe-Cys]-OH] ({X35-Suc}-[Nle]CPPTEFC-OH; linker 2-8 via mXylylene), the 50% inhibitory concentration (IC50) was in the range of 10 to 79.4 nM on Human recombinant FAP and 100 to 794 nM in assay [1].

Take `CCCC[C@H](NC(=O)CC[C@H](NC(=O)C(CNCCN)CNCCN)C(=O)O)C(=O)N[C@H]1CSCc2cccc(c2)CSC[C@@H](C(=O)O)NC(=O)[C@H](Cc2ccccc2)NC(=O)[C@H](CCC(=O)O)NC(=O)[C@H]([C@@H](C)O)NC(=O)[C@@H]2CCCN2C(=O)[C@@H]2CCCN2C1=O` [3BP-4230, N4Ac-gGlu-Nle-[Cys-(3MeBn)-Pro-Pro-Thr-Glu-Phe-Cys]-OH] ({X18-γGlu}-[Nle]CPPTEFC-OH; linker 2-8 via mXylylene): the IC50 (at Human recombinant FAP; in assay [1]) was greater than 1000 nM each time.

As for `C[C@@H](O)[C@@H]1NC(=O)[C@@H]2CCCN2C(=O)[C@@H]2CCCN2C(=O)[C@@H](NC(=O)[C@H](CCC(=O)O)NC(=O)CCC(=O)NCCCOCCOCCOCCCNC(=O)C(CNCCN)CNCCN)CSCc2cccc(c2)CSC[C@@H](C(=O)O)NC(=O)[C@H](Cc2ccccc2)NC(=O)[C@H](CCC(=O)O)NC1=O` [3BP-4233, N4Ac-Ttds-Glu-[Cys-(3MeBn)-Pro-Pro-Thr-Glu-Phe-Cys]-OH] ({X12-Suc}-ECPPTEFC-OH; linker 2-8 via mXylylene), the IC50 at Human recombinant FAP is greater than 1000 nM; in assay [1] it was 100 to 794 nM.

`CCCC[C@H](NC(=O)CCC(=O)NCCS(=O)(=O)CCNC(=O)C(CNCCN)CNCCN)C(=O)N[C@H]1CSCc2cccc(c2)CSC[C@@H](C(=O)O)NC(=O)[C@H](Cc2ccccc2)NC(=O)[C@H](CCC(=O)O)NC(=O)[C@H]([C@@H](C)O)NC(=O)[C@@H]2CCCN2C(=O)[C@@H]2CCCN2C1=O` [3BP-4243, N4Ac-Efa-Nle-[Cys-(3MeBn)-Pro-Pro-Thr-Glu-Phe-Cys]-OH] ({X40-Suc}-[Nle]CPPTEFC-OH; linker 2-8 via mXylylene): the IC50 (at Human recombinant FAP; in assay [1]) was 10 to 79.4 nM each time.

Consider `CCCC[C@H](NC(=O)CC[C@H](NC(=O)C(CNCCN)CNCCN)C(=O)O)C(=O)N[C@H]1CSCc2cccc(c2)CSC[C@@H](C(=O)O)NC(=O)[C@H](Cc2ccccc2)NC(=O)[C@H](CCC(N)=O)NC(=O)[C@H]([C@@H](C)O)NC(=O)[C@@H]2CCCN2C(=O)[C@@H]2CCCN2C1=O` [3BP-4244, N4Ac-gGlu-Nle-[Cys-(3MeBn)-Pro-Pro-Thr-Gln-Phe-Cys]-OH], for which the IC50 (on Human recombinant FAP; in assay [1]) was greater than 1000 nM throughout.

As to `CCCC[C@H](NC(=O)CCC(=O)NCCCOCCOCCOCCCNC(=O)CC[C@H](NC(=O)C(CNCCN)CNCCN)C(=O)O)C(=O)N[C@H]1CSCc2cccc(c2)CSC[C@@H](C(=O)O)NC(=O)[C@H](Cc2ccccc2)NC(=O)[C@H](CCC(=O)O)NC(=O)[C@H]([C@@H](C)O)NC(=O)[C@@H]2CCCN2C(=O)[C@@H]2CCCN2C1=O` [3BP-4245, N4Ac-gGlu-Ttds-Nle-[Cys-(3MeBn)-Pro-Pro-Thr-Gln-Phe-Cys]-OH] ({X42-Suc}-[Nle]CPPTEFC-OH; linker 2-8 via mXylylene), the IC50 (at Human recombinant FAP; in assay [1]) was 10 to 79.4 nM throughout.

Consider `CCCC[C@H](NC(=O)CCC(=O)NCCCOCCOCCOCCCNC(=O)[C@H](CCC(=O)NC[C@H](O)[C@@H](O)[C@H](O)[C@H](O)CO)NC(=O)[C@H](CCC(=O)NC[C@H](O)[C@@H](O)[C@H](O)[C@H](O)CO)NC(=O)C(CNCCN)CNCCN)C(=O)N[C@H]1CSCc2cccc(c2)CSC[C@@H](C(=O)O)NC(=O)[C@H](Cc2ccccc2)NC(=O)[C@H](CCC(=O)O)NC(=O)[C@H]([C@@H](C)O)NC(=O)[C@@H]2CCCN2C(=O)[C@@H]2CCCN2C1=O` [3BP-4266, N4Ac-Glu(AGLU)-Glu(AGLU)-Ttds-Nle-[Cys-(3MeBn)-Pro-Pro-Thr-Glu-Phe-Cys]-OH], for which the IC50 (at Human recombinant FAP; in assay [1]) was 10 to 79.4 nM each time.

On to `CCCCCC(=O)N[C@H]1CSCc2cc(CSCCNC(=O)CN3CCN4CCN(CC(=O)O)CCN(CC3)CC(=O)[O][Cu][O]C(=O)C4)cc(c2)CSC[C@@H](C(=O)O)NC(=O)[C@H](Cc2ccccc2)NC(=O)[C@H](CCC(N)=O)NC(=O)[C@H]([C@@H](C)O)NC(=O)[C@@H]2CCCN2C(=O)[C@@H]2CCCN2C1` [3BP-4293, Copper(II)-Complex of Hex-[Cys(tMeBn(DOTA-AET))-Pro-Pro-Thr-Gln-Phe-Cys]-OH], for which the IC50 (at Human recombinant FAP; in assay [1]) was less than 10 nM each time.

Take `CCCCCC(=O)N[C@H]1CSCc2cc(CSCCNC(=O)CCC(=O)NCCCOCCOCCOCCCNC(=O)C(CNCCN)CNCCN)cc(c2)CSC[C@@H](C(=O)O)NC(=O)[C@H](Cc2ccccc2)NC(=O)[C@H](CCC(N)=O)NC(=O)[C@H]([C@@H](C)O)NC(=O)[C@@H]2CCCN2C(=O)[C@@H]2CCCN2C1=O` [3BP-4299, Hex-[Cys-(tMeBn(N4Ac-Ttds-AET))-Pro-Pro-Thr-Gln-Phe-Cys]-OH]: the IC50 (at Human recombinant FAP; in assay [1]) was less than 10 nM each time.

Regarding `CCCCCC(=O)N[C@H]1CSCc2cc(CSCCNC(=O)CCOCCOCCOCCOCCOCCOCCNC(=O)C(CNCCN)CNCCN)cc(c2)CSC[C@@H](C(=O)O)NC(=O)[C@H](Cc2ccccc2)NC(=O)[C@H](CCC(N)=O)NC(=O)[C@H]([C@@H](C)O)NC(=O)[C@@H]2CCCN2C(=O)[C@@H]2CCCN2C1=O` [3BP-4300, Hex-[Cys-(tMeBn(N4Ac-PEG6-AET))-Pro-Pro-Thr-Gln-Phe-Cys]-OH], the IC50 at Human recombinant FAP was less than 10 nM; in assay [1], 10 to 79.4 nM.

Consider `CCCCCC(=O)N[C@H]1CSCc2cc(CSCCNC(=O)[C@H](CO)NC(=O)[C@H](CO)NC(=O)[C@H](CO)NC(=O)CS)cc(c2)CSC[C@@H](C(=O)O)NC(=O)[C@H](Cc2ccccc2)NC(=O)[C@H](CCC(N)=O)NC(=O)[C@H]([C@@H](C)O)NC(=O)[C@@H]2CCCN2C(=O)[C@@H]2CCCN2C1=O` [3BP-4301, Hex-[Cys-(tMeBn(H-SAc-Ser-Ser-Ser-AET))-Pro-Pro-Thr-Gln-Phe-Cys]-OH], for which the IC50 (at Human recombinant FAP; in assay [1]) was 10 to 79.4 nM each time.

These data come from US20220315554A1, “COMPOUNDS COMPRISING A […] LIGAND AND USE THEREOF” (priority 2019, published 2022).
